Experiments:
CYP1A2 = target: T1, CYP1A2 (Homo sapiens, UniProt P05177); assay: CYP1A2 inhibition, probe/drug metabolism in human liver microsomes (LC-MS/MS); settings: human, human liver microsomes, pH 7.4, probe phenacetin 40 μM, Residual activity (%) CYP1A2, HLM 0.5 mg/mL, phenacetin 40 μM, 30 min
T1 sequence (P05177 1-516): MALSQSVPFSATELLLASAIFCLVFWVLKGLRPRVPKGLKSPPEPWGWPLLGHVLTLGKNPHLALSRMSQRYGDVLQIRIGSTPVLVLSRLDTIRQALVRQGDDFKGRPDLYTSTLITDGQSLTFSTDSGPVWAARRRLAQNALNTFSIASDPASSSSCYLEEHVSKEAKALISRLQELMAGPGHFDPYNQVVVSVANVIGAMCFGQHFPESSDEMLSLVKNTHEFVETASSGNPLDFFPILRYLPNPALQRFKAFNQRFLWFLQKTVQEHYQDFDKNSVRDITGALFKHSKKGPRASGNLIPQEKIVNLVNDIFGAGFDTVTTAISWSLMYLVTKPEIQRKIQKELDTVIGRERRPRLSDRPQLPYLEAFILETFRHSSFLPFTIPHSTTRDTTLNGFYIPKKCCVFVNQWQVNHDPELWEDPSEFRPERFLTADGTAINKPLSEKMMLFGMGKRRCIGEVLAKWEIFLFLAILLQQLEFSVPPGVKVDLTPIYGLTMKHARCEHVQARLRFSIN
Description: (§1) The total volume of the in vitro metabolic incubation system is 200 μL. The probe substrate concentration in the system is shown in Supplementary Table S1. […] The reaction sample was preheated in a constant temperature mixer at 37°C. Then NADP^+ was added to the system to initiate the reaction. The reaction time is 30 min, and 100 μL acetonitrile will be added on time to quickly terminate the reaction, followed by centrifugation at 4°C and 20,000 g for 20 min. The supernatant was analyzed using liquid chromatography tandem mass spectrometry (LC-MS/MS), and the activity of CYP enzymes was evaluated by the generation of probe metabolites. The mass spectrometry information of probe substrates is shown in Supplementary Table S3.
(§2) The isolated triterpenoids (1–66) were used to establish a compounds library. The inhibitory effects of 66 triterpenoids from G. lucidum on seven subtypes of CYP enzymes (CYP1A2, 2A6, 2D6, 2B6, 2C9, 2C19, 3A4) were evaluated followed the above-mentioned experimental procedures.
(§3) For 16 clinical drugs metabolized by CYP enzymes, potential DDI studies were conducted on triterpenoids (6, 25) of G. lucidum, and IC50 values were measured.
(§4) Clinical drugs: Phenacetin, melatonin, clozapine and riluzole are metabolized by CYP1A2. Bupropion, artemisinin, efavirenz and sertraline are metabolized by CYP2B6. Diclofenac, valsartan, glimepiride and glibenclamide are metabolized by CYP2C9. Midazolam, imatinib, simvastatin and diltiazem are metabolized by CYP3A4.
(§5) Table S1. The information of probes for CYPs activity assay
(§6) Table S2. Information of clinical drugs

CYP2D6 = CYP2D6 (Homo sapiens, UniProt P10635); assay: CYP2D6 inhibition, dextromethorphan probe in human liver microsomes; settings: human, human liver microsomes, pH 7.4, probe dextromethorphan 5 μM, Residual activity (%) CYP2D6, HLM 0.5 mg/mL
Sequence of CYP2D6 (P10635 whole entry): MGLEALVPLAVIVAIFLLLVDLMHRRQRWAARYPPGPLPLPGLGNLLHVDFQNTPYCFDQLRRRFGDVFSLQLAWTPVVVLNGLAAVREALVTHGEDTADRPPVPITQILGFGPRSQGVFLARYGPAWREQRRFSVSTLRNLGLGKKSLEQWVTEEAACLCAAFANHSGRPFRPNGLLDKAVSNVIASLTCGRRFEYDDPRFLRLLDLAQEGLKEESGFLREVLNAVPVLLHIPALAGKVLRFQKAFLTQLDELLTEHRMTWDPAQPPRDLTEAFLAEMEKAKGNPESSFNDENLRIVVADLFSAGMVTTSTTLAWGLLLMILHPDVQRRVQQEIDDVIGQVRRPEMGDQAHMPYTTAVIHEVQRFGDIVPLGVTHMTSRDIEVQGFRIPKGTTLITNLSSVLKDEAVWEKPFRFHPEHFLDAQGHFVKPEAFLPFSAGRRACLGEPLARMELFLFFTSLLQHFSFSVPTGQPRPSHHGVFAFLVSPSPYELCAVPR
Description: as §1, §2, §5

CYP3A4 = CYP3A4 (Homo sapiens, UniProt P08684); assay: CYP3A4 inhibition, probe/drug metabolism in human liver microsomes
Sequence of CYP3A4 (P08684 whole entry): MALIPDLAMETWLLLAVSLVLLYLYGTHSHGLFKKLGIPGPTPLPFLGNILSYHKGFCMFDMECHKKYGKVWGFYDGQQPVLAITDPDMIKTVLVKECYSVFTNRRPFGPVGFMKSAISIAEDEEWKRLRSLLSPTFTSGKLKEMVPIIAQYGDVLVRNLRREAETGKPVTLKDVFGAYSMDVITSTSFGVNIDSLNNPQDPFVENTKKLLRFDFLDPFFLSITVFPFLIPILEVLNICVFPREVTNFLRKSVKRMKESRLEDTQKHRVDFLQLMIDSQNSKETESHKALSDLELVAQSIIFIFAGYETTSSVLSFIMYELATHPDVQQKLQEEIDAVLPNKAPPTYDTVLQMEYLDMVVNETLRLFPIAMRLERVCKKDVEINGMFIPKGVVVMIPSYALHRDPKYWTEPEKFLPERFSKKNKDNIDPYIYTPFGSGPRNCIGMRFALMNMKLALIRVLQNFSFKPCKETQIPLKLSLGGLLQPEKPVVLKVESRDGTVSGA
Description: as §1, §2, §3, §4, §5, §6

CYP2A6 = target: T2, CYP2A6 (Homo sapiens, UniProt P11509); assay: CYP2A6 inhibition, coumarin probe in human liver microsomes; settings: human, human liver microsomes, pH 7.4, probe coumarin 2 μM, Residual activity (%) CYP2A6, HLM 0.5 mg/mL
T2 sequence (P11509 1-494): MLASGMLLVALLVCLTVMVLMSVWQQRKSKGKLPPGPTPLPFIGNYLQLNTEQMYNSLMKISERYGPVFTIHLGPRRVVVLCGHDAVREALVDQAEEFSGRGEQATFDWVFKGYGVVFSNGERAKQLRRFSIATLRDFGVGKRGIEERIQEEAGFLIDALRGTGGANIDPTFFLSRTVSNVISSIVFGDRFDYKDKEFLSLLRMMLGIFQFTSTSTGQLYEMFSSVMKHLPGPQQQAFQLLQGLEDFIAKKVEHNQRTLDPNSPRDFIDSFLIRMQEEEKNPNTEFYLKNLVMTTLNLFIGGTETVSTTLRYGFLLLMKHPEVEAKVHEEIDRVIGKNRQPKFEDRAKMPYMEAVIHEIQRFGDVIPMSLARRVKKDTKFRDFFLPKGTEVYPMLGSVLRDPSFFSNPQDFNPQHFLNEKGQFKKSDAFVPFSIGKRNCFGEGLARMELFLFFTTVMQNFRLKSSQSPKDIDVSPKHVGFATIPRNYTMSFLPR
Description: as §1, §2, §5

CYP2B6 = target: T3, CYP2B6 (Homo sapiens, UniProt P20813); assay: CYP2B6 inhibition, probe/drug metabolism in human liver microsomes
T3 sequence (P20813 1-491): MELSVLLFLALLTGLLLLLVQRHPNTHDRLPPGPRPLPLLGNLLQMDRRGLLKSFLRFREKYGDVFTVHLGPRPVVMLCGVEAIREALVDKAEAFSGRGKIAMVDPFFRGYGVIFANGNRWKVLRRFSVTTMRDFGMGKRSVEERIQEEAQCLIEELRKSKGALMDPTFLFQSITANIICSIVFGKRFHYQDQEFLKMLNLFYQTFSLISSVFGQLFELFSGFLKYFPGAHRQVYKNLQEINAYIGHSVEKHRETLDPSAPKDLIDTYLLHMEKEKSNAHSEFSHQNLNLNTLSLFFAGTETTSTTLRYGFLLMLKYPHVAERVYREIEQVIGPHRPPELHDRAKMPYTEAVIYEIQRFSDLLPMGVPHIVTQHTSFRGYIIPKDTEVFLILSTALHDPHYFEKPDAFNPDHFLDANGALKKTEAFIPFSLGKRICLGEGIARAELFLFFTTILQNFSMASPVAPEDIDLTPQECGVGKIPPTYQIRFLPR
Description: as §1, §2, §3, §4, §5, §6

CYP2C19 = CYP2C19 (Homo sapiens, UniProt P33261); assay: CYP2C19 inhibition, S-mephenytoin probe in human liver microsomes
Sequence of CYP2C19 (P33261 whole entry): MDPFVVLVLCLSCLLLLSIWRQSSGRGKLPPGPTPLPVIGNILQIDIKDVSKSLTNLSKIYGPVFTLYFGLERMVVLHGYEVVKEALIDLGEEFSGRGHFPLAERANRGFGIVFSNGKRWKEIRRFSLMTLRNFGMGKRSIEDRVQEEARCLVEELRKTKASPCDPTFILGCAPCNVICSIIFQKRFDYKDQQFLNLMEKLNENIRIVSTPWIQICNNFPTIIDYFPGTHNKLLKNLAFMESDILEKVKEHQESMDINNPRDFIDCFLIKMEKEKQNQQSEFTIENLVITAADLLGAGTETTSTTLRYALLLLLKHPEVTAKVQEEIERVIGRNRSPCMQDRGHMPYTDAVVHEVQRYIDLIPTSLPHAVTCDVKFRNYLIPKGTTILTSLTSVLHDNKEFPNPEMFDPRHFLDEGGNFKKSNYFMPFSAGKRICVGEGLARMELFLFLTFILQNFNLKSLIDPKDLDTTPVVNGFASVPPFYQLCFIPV
Description: as §1, §2, §5

CC(CCC(O)C(C)(O)CO)C1CCC2(C)C3=C(C(=O)CC12C)C1(C)CCC(=O)C(C)(C)C1CC3 (stereo not drawn) [Compound 25, ganodrol C]
activity at 30 min (CYP1A2): 104 ± 18.9%
activity at 30 min (CYP2D6): 68.22 ± 0.44%
IC50 (CYP3A4; IC50 against CYP 3A4, substrate midazolam 5 μM, HLM): 4.78 µM
IC50 (CYP3A4; IC50 against metabolism of diltiazem mediated by CYP3A4, substrate diltiazem 10 μM, 30 min): 5.12 ± 0.56 µM
IC50 (CYP3A4; IC50 against metabolism of imatinib mediated by CYP3A4, substrate imatinib 5 μM, 30 min): 7.57 ± 0.2 µM
IC50 (CYP3A4; IC50 against metabolism of simvastatin mediated by CYP3A4, substrate simvastatin 10 μM, 30 min): 4.5 ± 0.48 µM
activity at 30 min (CYP3A4; human, human liver microsomes, pH 7.4, probe midazolam 5 μM, Residual activity (%) CYP3A4, HLM 0.5 mg/mL, midazolam 5 μM, 30 min): 30.1 ± 1.54%
activity at 30 min (CYP2A6): 70.1 ± 2.15%
IC50 (CYP2B6; IC50 against CYP 2B6, substrate bupropion 75 μM, HLM): 25.3 ± 3.7 µM
IC50 (CYP2B6; IC50 against metabolism of artemisinin mediated by CYP2B6, substrate artemisinin 10 μM, 30 min): 21.5 ± 3.44 µM
IC50 (CYP2B6; IC50 against metabolism of efavirenz mediated by CYP2B6, substrate efavirenz 20 μM, 30 min): 24.3 ± 3.05 µM
IC50 (CYP2B6; IC50 against metabolism of sertraline mediated by CYP2B6, substrate sertraline 5 μM, 30 min): 25.1 ± 2.86 µM
activity at 30 min (CYP2B6; human, human liver microsomes, pH 7.4, probe bupropion 75 μM, Residual activity (%) CYP2B6, HLM 0.5 mg/mL, bupropion 75 μM, 30 min): 56.8 ± 2.04%
IC50 (CYP2C19): 15.4 µM
activity at 30 min (CYP2C19; human, human liver microsomes, pH 7.4, probe S-mephenytoin 50 μM, Residual activity (%) CYP2C19, HLM 0.5 mg/mL, S-mephenytoin 50 μM, 30 min): 39.2 ± 4.83%

From article PMC11605156, “Triterpenoids from Ganoderma lucidum inhibit cytochrome P450 enzymes interfering with the metabolic process of specific clinical drugs” (Frontiers in Pharmacology, 2024)
